Reference: paper PMC9127750, “Structure-based design of CDC42 effector interaction inhibitors for the treatment of cancer” (Cell reports, 2022)
pIC50: −log10 of the molar value. Read-outs that look alike come from different tables or passages of the source.

Experiments:
Test in all cases: cells
SJSA-1 = settings: Homo sapiens, SJSA-1, read-out: IC50 ARN22089
In short: (§1)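 Cells were grown in their appropriate media, seeded, and incubated with compound overnight at 37°C. Viable cells were then quantified by CellTiterGlo luminescence.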

[1] = tested on: WM3248, SKMel3, A375, SW480, and SKM28; settings: WM3248, SKMel3, A375, and SW480
In short: as §1

SW620 = settings: Homo sapiens, SW-620, read-out: IC50 ARN22089
In short: as §1

HCT-15 = settings: Homo sapiens, HCT-15, read-out: IC50 ARN22089
In short: as §1

DLD-1 = settings: Homo sapiens, DLD-1, read-out: IC50 ARN22089
In short: as §1

KG-1 = settings: Homo sapiens, KG-1, read-out: IC50 ARN22089
In short: as §1

SCLC-21H = settings: Homo sapiens, read-out: IC50 ARN22089
In short: as §1

NCI-H1703 = settings: Homo sapiens, NCI-H1703, read-out: IC50 ARN22089
In short: as §1

PC3 = settings: Homo sapiens, PC-3, read-out: IC50 ARN22089
In short: as §1

NCI-H1838 = settings: Homo sapiens, NCI-H1838, read-out: IC50 ARN22089
In short: as §1

NCI-H838 = settings: Homo sapiens, NCI-H838, read-out: IC50 ARN22089
In short: as §1

NCI-H441 = settings: Homo sapiens, NCI-H441, read-out: IC50 ARN22089
In short: as §1

SK-ES-1 = settings: Homo sapiens, SK-ES1, read-out: IC50 ARN22089
In short: as §1

DU-145 = settings: Homo sapiens, DU-145, read-out: IC50 ARN22089
In short: as §1

MiaPaCA2 = settings: Homo sapiens, MIA PaCa-2, read-out: IC50 ARN22089
In short: as §1

LnCap = settings: Homo sapiens, read-out: IC50 ARN22089
In short: as §1

NCI-H1581 = settings: Homo sapiens, NCI-H1581, read-out: IC50 ARN22089
In short: as §1

Hep3B2.1-7 = settings: read-out: IC50 ARN22089
In short: as §1

DV90 = settings: Homo sapiens, DV-90, read-out: IC50 ARN22089
In short: as §1

MCAS = settings: read-out: IC50 ARN22089
In short: as §1

KARPAS 299 = settings: Homo sapiens, KARPAS-299, read-out: IC50 ARN22089
In short: as §1

SNU-1 = settings: Homo sapiens, SNU1, read-out: IC50 ARN22089
In short: as §1

H460 = settings: Homo sapiens, NCI-H460, read-out: IC50 ARN22089
In short: as §1

SW948 = settings: Homo sapiens, SW948, read-out: IC50 ARN22089
In short: as §1

SK.BR-3 = settings: Homo sapiens, SK-BR-3, read-out: IC50 ARN22089
In short: as §1

U87MG = settings: Homo sapiens, U-87 MG, read-out: IC50 ARN22089
In short: as §1

A375 = settings: Homo sapiens
In short: as §1

HCC1569 = settings: Homo sapiens, HCC1569, read-out: IC50 ARN22089
In short: as §1

H1299 = settings: Homo sapiens, NCI-H1299, read-out: IC50 ARN22089
In short: as §1

LOVO = settings: Homo sapiens, read-out: IC50 ARN22089
In short: as §1

SW480 = settings: Homo sapiens
In short: as §1

HCT116 = settings: Homo sapiens, HCT-116, read-out: IC50 ARN22089
In short: as §1

NCI-H1048 = settings: Homo sapiens, NCI-H1048, read-out: IC50 ARN22089
In short: as §1

LOU-NH91 = settings: LOU-NH91, read-out: IC50 ARN22089
In short: as §1

HT-29 = settings: Homo sapiens, HT-29, read-out: IC50 ARN22089
In short: as §1

COV434 = settings: COV434, read-out: IC50 ARN22089
In short: as §1

M07e = settings: M-07e, read-out: IC50 ARN22089
In short: as §1

MCF-7 = settings: Homo sapiens, MCF7, read-out: IC50 ARN22089
In short: as §1

EPLC-272H = settings: Homo sapiens, read-out: IC50 ARN22089
In short: as §1

RERF-LC-MS = settings: read-out: IC50 ARN22089
In short: as §1

CN(C)c1cccc(Nc2cc(-c3ccccc3)nc(C3CCNCC3)n2)c1 [ARN22089, N1,N1-dimethyl-N3-(6-phenyl-2-(piperidin-4-yl)pyrimidin-4-yl)benzene-1,3-diamine]
pIC50 (SJSA-1): 5.02 | IC50 activity against the more sensitive cell lines [1]: single-digit micromolar | pIC50 (SW620): 5.23 | pIC50 (HCT-15): 5.06 | pIC50 (DLD-1): 5.30 | pIC50 (KG-1): 4.85 | pIC50 (SCLC-21H): 5.27 | pIC50 (NCI-H1703): 4.43 | pIC50 (PC3): 5.04 | pIC50 (NCI-H1838): 4.77 | pIC50 (NCI-H838): 4.92 | pIC50 (NCI-H441): 4.92 | pIC50 (SK-ES-1): 4.92 | pIC50 (DU-145): 4.96 | pIC50 (MiaPaCA2): 5.08 | pIC50 (LnCap): 4.85 | pIC50 (NCI-H1581): 4.62 | pIC50 (Hep3B2.1-7): 5.44 | pIC50 (DV90): 4.54 | pIC50 (MCAS): 5.34 | pIC50 (KARPAS 299): 4.96 | pIC50 (SNU-1): 5.11 | pIC50 (H460): 5.07 | pIC50 (SW948): 5.08 | pIC50 (SK.BR-3): 5.17 | pIC50 (U87MG): 5.21 | pIC50 (A375; A-375, read-out: IC50 A375): 5.31 | pIC50 (A375; A-375, read-out: IC50 ARN22089): 5.35 | pIC50 (HCC1569): 4.96 | pIC50 (H1299): 4.96 | pIC50 (LOVO): 5.11 | pIC50 (SW480; SW480, read-out: IC50 ARN22089): 5.47 | pIC50 (SW480; SW480, read-out: IC50 SW480): 5.07 | pIC50 (HCT116): 5.28 | pIC50 (NCI-H1048): 4.66 | pIC50 (LOU-NH91): 4.54 | pIC50 (HT-29): 5.46 | pIC50 (COV434): 5.26 | pIC50 (M07e): 4.96 | pIC50 (MCF-7): 5.14 | pIC50 (EPLC-272H): 4.80 | pIC50 (RERF-LC-MS): 4.92
